Measured values taken from PMC2759276 (Bioorganic & medicinal chemistry, 2009).
“Also recorded” adds a separate entry of the source. Read-outs that look alike come from different tables or passages of the source.

Experiments:
VIM-2 [1] = target: T1, VIM-2 (Escherichia coli, UniProt Q5U7L7); test: VIM-2 CCF2 kinetic assay; assay type: biochemical; conditions: VIM-2, CCF2 format; SD of 3 replicates
TEM-1 = TEM-1 (Escherichia coli, UniProt P62593); test: TEM-1 nitrocefin assay; assay type: biochemical; conditions: for inhibition at 25 µM: read-out: Max Inhibition @ Tested Concentration, TEM-1 Nitrocefin; for inhibitory activity against TEM-1 (in words): highest concentration tested 25 μM
Sequence of TEM-1 (P62593 24-286 limits assumed): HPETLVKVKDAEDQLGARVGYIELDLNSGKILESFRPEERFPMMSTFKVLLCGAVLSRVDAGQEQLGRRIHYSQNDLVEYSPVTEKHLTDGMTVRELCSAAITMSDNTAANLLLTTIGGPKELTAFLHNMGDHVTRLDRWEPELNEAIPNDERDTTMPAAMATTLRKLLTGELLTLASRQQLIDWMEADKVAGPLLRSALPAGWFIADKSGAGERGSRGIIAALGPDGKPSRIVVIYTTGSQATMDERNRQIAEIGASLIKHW

AmpC = AmpC (Enterobacter cloacae, UniProt P05364); test: AmpC nitrocefin assay; assay type: biochemical, E.cloacae; conditions: for inhibition at 25 µM: read-out: Max Inhibition @ Tested Concentration, AmpC Nitrocefin; for inhibitory activity against AmpC (in words): highest concentration tested 25 μM
Sequence of AmpC (P05364 21-381): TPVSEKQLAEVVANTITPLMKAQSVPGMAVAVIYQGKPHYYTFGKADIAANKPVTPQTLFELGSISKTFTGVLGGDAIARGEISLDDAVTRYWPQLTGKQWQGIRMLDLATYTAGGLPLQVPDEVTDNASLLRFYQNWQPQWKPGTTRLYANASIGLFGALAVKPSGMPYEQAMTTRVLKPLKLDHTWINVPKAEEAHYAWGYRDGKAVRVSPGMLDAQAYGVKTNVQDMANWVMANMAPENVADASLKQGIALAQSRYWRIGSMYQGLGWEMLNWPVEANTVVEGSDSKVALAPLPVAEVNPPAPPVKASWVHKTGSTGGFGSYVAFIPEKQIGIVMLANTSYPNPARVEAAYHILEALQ

[2] = test system: resistant E. coli (BL21/VIM-2); test: Imipenem MIC potentiation by a single dose of inhibitor; assay type: cell-based; conditions: for Imipenem MIC @ 50 μM of compound: BL21+VIM-2; for potentiation of imipenem efficacy (in words): resistant E. coli (BL21/VIM-2)
VIM-2 [3] = target: T1, VIM-2; assay type: biochemical; conditions: for effect of absence of zinc in the assay buffer on potency: with vs without 50 μM ZnSO4
VIM-2 [4] = target: T1, VIM-2; assay type: biochemical
IMP-1 = IMP-1 (Serratia marcescens, UniProt P52699); test: biochemical; assay type: biochemical; conditions: for inhibition at 56 µM: read-out: Max Inhibition @ Tested Concentration, IMP-1 Nitrocefin
Sequence of IMP-1 (P52699 19-246 limits assumed): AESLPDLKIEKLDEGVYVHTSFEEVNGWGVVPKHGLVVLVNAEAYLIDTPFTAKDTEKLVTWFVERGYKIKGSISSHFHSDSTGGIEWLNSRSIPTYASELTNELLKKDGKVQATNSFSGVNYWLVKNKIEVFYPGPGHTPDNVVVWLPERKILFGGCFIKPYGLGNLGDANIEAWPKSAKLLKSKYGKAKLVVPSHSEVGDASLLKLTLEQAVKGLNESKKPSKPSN

[5] = test system: resistant (BL21/VIM-2) E. coli; assay type: cell-based
VIM-2 [6] = target: T1, VIM-2; test: Rapid dilution experiment
BL21/VIM2 E. coli = assay type: cell-based; conditions: checkerboard microdilution
[7] = test system: non-resistant (BL21) E. coli; test: MIC assay, non-resistant strain; assay type: cell-based
VIM-2 [8] = target: T1, VIM-2; test: VIM-2 FRET; assay type: biochemical; conditions: @ 36 μM

Work on `O=C(CNC(=O)c1cc2cc(Cl)c(O)cc2oc1=O)N[C@@H]1C(=O)N2C(C(=O)O)=C(CSc3ccc4c(c3)C(=O)OC43c4ccc(O)cc4Oc4cc(O)ccc43)CS[C@H]12` [CCF2] yielded a Km (VIM-2 [1]) of 21 ± 7 µM.

In the case of `C#CCCOCc1nn[nH]c1CNS(=O)(=O)c1ccc(I)cc1` [Compound 1, 4-Iodo-N-((4-((but-3-ynyloxy)methyl)-1H-1,2,3-triazol-5-yl)methyl)benzenesulfonamide], the IC50 (TEM-1) is reported as greater than 25 µM, the inhibition at 25 µM (TEM-1) is reported as 0% and the IC50 (AmpC) is reported as greater than 25 µM. For the same compound, the inhibition at 25 µM (AmpC) was 0%, the “Imipenem MIC @ 50 μM of compound” value [2] was 1.9 µg/mL and the “effect of absence of zinc in the assay buffer on potency” value (shortened to “effect of absence of zinc”) (VIM-2 [3]) was “not significantly affected by the absence of zinc; also recorded: independent of the concentration of zinc”. For the same compound, the mechanism of inhibition (VIM-2 [4]) was “competitive inhibitors”, the IC50 (IMP-1) was greater than 56 µM and the “activity in the IMP-1 nitrocefin assay (in words)” value (IMP-1) was “inactive”. For the same compound, the inhibition at 56 µM (IMP-1) was 0%.

Work on `COCc1nn[nH]c1CNS(=O)(=O)c1ccc(I)cc1` [Compound 2, 4-Iodo-N-((4-(methoxymethyl)-1H-1,2,3-triazol-5-yl)methyl)benzenesulfonamide] yielded an IC50 (TEM-1) greater than 25 µM, an inhibition at 25 µM (TEM-1) of 0% and an IC50 (AmpC) greater than 25 µM. For the same compound, the inhibition at 25 µM (AmpC) was 0%, the “Imipenem MIC @ 50 μM of compound” value [2] was 1.9 µg/mL and the “effect of absence of zinc” value (VIM-2 [3]) was “not significantly affected by the absence of zinc; also recorded: independent of the concentration of zinc”. For the same compound, the mechanism of inhibition (VIM-2 [4]) was “competitive inhibitors”, the IC50 (IMP-1) was greater than 56 µM and the “activity in the IMP-1 nitrocefin assay (in words)” value (IMP-1) was “inactive”. For the same compound, the inhibition at 56 µM (IMP-1) was 0%.

For `O=C1c2c(O)ccc(O)c2C(=O)c2c(NCCNCCO)ccc(NCCNCCO)c21` [Mitoxantrone, 1,4-Dihydroxy-5,8-bis([2-([2-hydroxyethyl]amino)ethyl]amino)-9,10-anthracenedione], the IC50 (TEM-1) was greater than 25 µM, the “inhibitory activity against TEM-1 (in words)” value (TEM-1) was “did not exhibit any inhibitory activity” and the inhibition at 25 µM (TEM-1) was 0%. The IC50 (AmpC) was greater than 25 µM, the “inhibitory activity against AmpC (in words)” value (AmpC) was “did not exhibit any inhibitory activity” and the inhibition at 25 µM (AmpC) was 0%. For the same compound, the “Imipenem MIC @ 50 μM of compound” value [2] was 0.2 µg/mL, the “potentiation of imipenem efficacy (in words)” value [2] was “completely reverse the effects of VIM-2 on imipenem potency; also recorded: potentiate imipenem efficacy” and the “effect of absence of zinc” value (VIM-2 [3]) was “not significantly affected by the absence of zinc”. The IC50 (IMP-1) was greater than 56 µM, the “activity in the IMP-1 nitrocefin assay (in words)” value (IMP-1) was “did not exhibit any inhibitory activity” and the “activity in the IMP-1 nitrocefin assay (in words)” value (IMP-1; listed as mitoxantrone) was “inactive at the range of concentrations tested”. For the same compound, the inhibition at 56 µM (IMP-1) was 0%.

With `O=C(O)c1cc[c]([Hg][Cl])cc1` [pCMB, 4-chloromercuribenzoic acid] the “Max Inhibition @ Tested Concentration, TEM-1 Nitrocefin” value (TEM-1; @ 25 μM) was 0%, the “inhibitory activity against TEM-1 (in words)” value (TEM-1) was “no inhibitory activity” and the IC50 (TEM-1; read-out: IC50 TEM-1 Nitrocefin) was greater than 25 µM. The “Compound MIC” value [5] was 17.9 µg/mL, the “Max Inhibition @ Tested Concentration, AmpC Nitrocefin” value (AmpC; @ 25 μM) was 0% and the “inhibitory activity against AmpC (in words)” value (AmpC) was “no inhibitory activity”. For the same compound, the IC50 (AmpC; read-out: IC50 AmpC Nitrocefin) was greater than 25 µM, the “inhibition of VIM-2” value (VIM-2 [6]; 24 μM, incubated 30 minutes at room temperature) was 90% and the “recovery of VIM-2 activity after dilution” value (VIM-2 [6]; after 15 minutes, 1:100 dilution from 24 μM) was 16.5%. The MIC alone (BL21/VIM2 E. coli) was 17.9 µg/mL, the “Imipenem MIC @ 50 μM of compound” value [2] was 0.2 µg/mL and the “potentiation of imipenem efficacy (in words)” value [2] was “completely reverse the effects of VIM-2 on imipenem potency; also recorded: potentiate imipenem efficacy”. For the same compound, the “Compound MIC” value [7] was 17.9 µg/mL, the “Max Inhibition @ Tested Concentration, VIM-2 (CCF2)” value (VIM-2 [8]) was “NA (83% @ 36 μM)” and the “Max Inhibition @ Tested Concentration, VIM-2 (Nitrocefin)” value (VIM-2 [3]; @ 15 μM) was “NA ^(e) (80% @ 15 μM)”. For the same compound, the “effect of absence of zinc” value (VIM-2 [3]) was “not significantly affected by the absence of zinc”, the mechanism of inhibition (VIM-2 [4]) was “slowly reversible or irreversible inhibitor; also recorded: irreversible / slowly reversible” and the “activity in the IMP-1 nitrocefin assay (in words)” value (IMP-1) was “modest potency; also recorded: demonstrated potency”. For the same compound, the “Max Inhibition @ Tested Concentration, IMP-1 Nitrocefin” value (IMP-1; @ 140 μM, 15 minutes of preincubation) was “NA (82% @ 140 μM)”.
